We go through 18 compounds from US10273236B2, “Macrocyclic factor XIa inhibitors bearing heterocyclic groups” (Bristol-Myers Squibb Company, priority 2014, dated 2019).

The target in assay [1] is T1, purified human Factor XIa (Homo sapiens, UniProt P03951).
T1 construct: purchased Haematologic Technologies
Put plainly: Factor XIa inhibition assay, chromogenic substrate S-2366 (Ki). Format: biochemical. The protocol:
(§1) The effectiveness of compounds of the present invention as inhibitors of the coagulation Factors XIa, VIIa, IXa, Xa, XIIa, plasma kallikrein or thrombin, can be determined using a relevant purified serine protease, respectively, and an appropriate synthetic substrate. The rate of hydrolysis of the chromogenic or fluorogenic substrate by the relevant serine protease was measured both in the absence and presence of compounds of the present invention. […] A decrease in the rate of absorbance or fluorescence change in the presence of inhibitor is indicative of enzyme inhibition. Such methods are known to one skilled in the art. The results of this assay are expressed as the inhibitory constant, Ki.
Factor XIa determinations were made in 50 mM HEPES buffer at pH 7.4 containing 145 mM NaCl, 5 mM KCl, and 0.1% PEG 8000 (polyethylene glycol; JT Baker or Fisher Scientific). Determinations were made using purified human Factor XIa at a final concentration of 25-200 pM (Haematologic Technologies) and the synthetic substrate S-2366 (pyroGlu-Pro-Arg-pNA; Chromogenix or AnaSpec) at a concentration of 0.0002-0.001 M.
(§2) Values of Ki were determined by allowing the protease to react with the substrate in the presence of the inhibitor.
(§3) Reactions were allowed to go for periods of 20-180 minutes (depending on the protease) and the velocities (rate of absorbance or fluorescence change versus time) were measured.
(§4) The following relationships were used to calculate Ki values: (Vmax*S)/(Km+S) (vo−vs)/vs=I/(Ki(1+S/Km)) for a competitive inhibitor with one binding site; or vs/vo=A+((B−A)/1+((IC50/(I)^n))); and Ki=IC50/(1+S/Km) for a competitive inhibitor where: […]

Assay [2] has as its target T2, purified human plasma kallikrein (Homo sapiens, UniProt P03952).
T2 construct: Plasma prekallikrein is a zymogen of a trypsin-like serine protease; purchased Enzyme Research Laboratories
Put plainly: Plasma kallikrein inhibition assay, chromogenic substrate S-2302 (Ki). Format: biochemical. The protocol: as §1
Plasma kallikrein determinations were made in 0.1 M sodium phosphate buffer at a pH of 7.5 containing 0.1-0.2 M sodium chloride and 0.5% PEG 8000. Determinations were made using purified human plasma kallikrein (Enzyme Research Laboratories) at a final assay concentration of 200 pM and the synthetic substrate S-2302 (H-(D)-Pro-Phe-Arg-pNA; Chromogenix) at a concentration of 0.00008-0.0004 M.
as §2, §3, §4

Where a name gives a salt, the structure may show the parent alone.

Broadly, the Ki is a measure of affinity in units of concentration, obtained from inhibition or displacement. Low readings indicate a stronger hold on the target, high ones a looser hold on the target.

T1 sequence (P03951 388-625 limits assumed): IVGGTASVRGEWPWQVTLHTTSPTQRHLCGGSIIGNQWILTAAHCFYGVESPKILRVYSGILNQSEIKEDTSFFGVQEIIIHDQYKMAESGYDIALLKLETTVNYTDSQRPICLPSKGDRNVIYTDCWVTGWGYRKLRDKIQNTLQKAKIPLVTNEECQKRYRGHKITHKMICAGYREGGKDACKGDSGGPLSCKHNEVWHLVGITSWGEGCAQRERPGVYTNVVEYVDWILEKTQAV
T1 sequence (P03951 19-387 partner limits assumed): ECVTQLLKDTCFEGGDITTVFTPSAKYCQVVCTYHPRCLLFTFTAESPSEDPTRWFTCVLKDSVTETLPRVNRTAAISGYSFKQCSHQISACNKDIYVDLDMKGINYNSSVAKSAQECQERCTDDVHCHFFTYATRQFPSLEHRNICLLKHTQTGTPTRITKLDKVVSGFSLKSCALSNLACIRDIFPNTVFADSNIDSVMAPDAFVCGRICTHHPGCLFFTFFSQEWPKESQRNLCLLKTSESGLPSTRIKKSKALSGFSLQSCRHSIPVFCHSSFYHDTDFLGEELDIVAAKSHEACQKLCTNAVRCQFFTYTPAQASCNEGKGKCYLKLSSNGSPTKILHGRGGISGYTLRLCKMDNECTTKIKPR
T2 sequence (P03952 391-638 limits assumed): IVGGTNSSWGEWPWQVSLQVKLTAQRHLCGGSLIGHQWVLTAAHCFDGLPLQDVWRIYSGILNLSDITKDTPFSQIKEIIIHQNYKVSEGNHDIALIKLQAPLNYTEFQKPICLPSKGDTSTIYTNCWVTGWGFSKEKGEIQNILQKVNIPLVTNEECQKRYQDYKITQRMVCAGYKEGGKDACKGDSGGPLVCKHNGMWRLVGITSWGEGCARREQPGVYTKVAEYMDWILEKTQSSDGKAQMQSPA
T2 sequence (P03952 20-390 partner limits assumed): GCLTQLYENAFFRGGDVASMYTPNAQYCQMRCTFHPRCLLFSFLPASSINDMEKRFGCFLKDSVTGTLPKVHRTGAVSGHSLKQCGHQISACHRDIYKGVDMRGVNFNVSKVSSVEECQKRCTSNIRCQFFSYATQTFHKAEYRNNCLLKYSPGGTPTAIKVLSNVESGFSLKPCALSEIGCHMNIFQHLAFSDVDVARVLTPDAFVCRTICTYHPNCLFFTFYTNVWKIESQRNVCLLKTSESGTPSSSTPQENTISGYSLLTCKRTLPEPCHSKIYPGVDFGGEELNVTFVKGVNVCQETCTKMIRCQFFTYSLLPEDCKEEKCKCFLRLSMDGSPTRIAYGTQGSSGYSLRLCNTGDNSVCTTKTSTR

With `C[C@H]1C(=O)Nc2cnn(C)c2-c2ccnc(c2)[C@@H](N2CCC(c3cc(Cl)ccc3-n3cc(Cl)nn3)=CC2=O)CCC1F` (single isomer, unassigned; isomer a) [Example 13], the Ki in assay [1] worked out at 0.0001 µM; in assay [2] it was 0.006 µM. For the compound `C[C@H]1C(=O)Nc2cnn(C)c2-c2ccnc(c2)[C@@H](N2CCC(c3cc(Cl)ccc3-n3cc(Cl)nn3)=CC2=O)CCC1F` (single isomer, unassigned; isomer b) [Example 15], the figures for the Ki in assay [1] and in assay [2] were 0.019 µM and 0.45 µM, respectively.

Turning to `C[C@@H]1CCC[C@H](N2CCC(c3cc(Cl)ccc3-n3ccnn3)=CC2=O)c2cc(ccn2)-c2c(cnn2C2CC2)NC1=O` (stereo in doubt) [Example 5, 13-{4-[5-chloro-2-(1H-1,2,3-triazol-1-yl)phenyl]-6-oxo-1,2,3,6-tetrahydropyridin-1-yl}-3-cyclopropyl-9-methyl-3,4,7,15-tetraazatricyclo [12.3.1.0^2,6]octadeca-1(18),2(6),4,14,16-pentaen-8-one], the figures for the Ki in assay [1] and in assay [2] were 0.0014 µM and 0.052 µM, respectively. In turn, `CCn1ncc2c1-c1ccnc(c1)[C@@H](N1CCC(c3cc(Cl)ccc3-n3ccnn3)=CC1=O)CCC[C@@H](C)C(=O)N2` (stereo in doubt) [Example 7, 13-{4-[5-chloro-2-(1H-1,2,3-triazol-1-yl)phenyl]-6-oxo-1,2,3,6-tetrahydropyridin-1-yl}-3-ethyl-9-methyl-3,4,7,15-tetraazatricyclo[12.3.1.0^2,6]octadeca-1(18),2(6),4,14,16-pentaen-8-one] returned a Ki in assay [2] of 0.041 µM. On to `C[C@@H]1CCC[C@H](N2CCC(c3cc(Cl)ccc3-n3ccnn3)=CC2=O)c2cc(ccn2)-c2c(cnn2CC(F)F)NC1=O` (stereo in doubt) [Example 8, 13-{4-[5-chloro-2-(1H-1,2,3-triazol-1-yl)phenyl]-6-oxo-1,2,3,6-tetrahydropyridin-1-yl}-3-(2,2-difluoroethyl)-9-methyl-3,4,7,15-tetraazatricyclo [12.3.1.0^2,6]octadeca-1(18),2(6),4,14,16-pentaen-8-one], for which, in assay [2], the Ki worked out at 0.09 µM. `C[C@@H]1CCC[C@H](N2CCC(c3cc(Cl)ccc3-n3ccnn3)=CC2=O)c2cc(ccn2)-c2c(cnn2CCO)NC1=O` (stereo in doubt) [Example 11, 13-{4-[5-chloro-2-(1H-1,2,3-triazol-1-yl)phenyl]-6-oxo-1,2,3,6-tetrahydropyridin-1-yl}-3-(2-hydroxyethyl)-9-methyl-3,4,7,15-tetraazatricyclo[12.3.1.0^2,6]octadeca-1(18),2(6),4,14,16-pentaen-8-one]: the Ki was 0.0055 µM in assay [1] and 0.14 µM in assay [2].

For `C[C@@H]1CCC[C@H](N2CCC(c3cc(Cl)ccc3-n3ccnn3)=CC2=O)c2cc(ccn2)-c2c(cnn2C)NC1=O` [Example 1, (9R,13S)-13-{4-[5-chloro-2-(1H-1,2,3-triazol-1-yl)phenyl]-6-oxo-1,2,3,6-tetrahydropyridin-1-yl}-3,9-dimethyl-3,4,7,15-tetraazatricyclo[12.3.1.0^2,6]octadeca-1(18),2(6),4,14,16-pentaen-8-one trifluoroacetate], the Ki in assay [1] is 0.0018 µM; in assay [2], 0.024 µM.

`C[C@@H]1CCC[C@H](N2CCC(c3c(F)ccc(Cl)c3F)=CC2=O)c2cc(ccn2)-c2c(cnn2C)NC1=O` [Example 2, (9R,13S)-13-[4-(3-chloro-2,6-difluorophenyl)-6-oxo-1,2,3,6-tetrahydropyridin-1-yl]-3,9-dimethyl-3,4,7,15-tetraazatricyclo[12.3.1.0^2,6]octadeca-1(18),2(6),4,14,16-pentaen-8-one]: the Ki in assay [1] was 0.01 µM; in assay [2] it was 0.03 µM. Take `C[C@@H]1CCC[C@H](N2CCC(c3cc(Cl)ccc3-n3cc(Cl)nn3)=CC2=O)c2cc(ccn2)-c2c(cnn2C)NC1=O` [Example 3, (9R,13S)-13-{4-[5-chloro-2-(4-chloro-1H-1,2,3-triazol-1-yl)phenyl]-6-oxo-1,2,3,6-tetrahydropyridin-1-yl}-3,9-dimethyl-3,4,7,15-tetraazatricyclo [12.3.1.0^2,6]octadeca-1(18),2(6),4,14,16-pentaen-8-one]: the Ki in assay [1] amounted to 0.00012 µM; in assay [2], 0.006 µM. `C[C@@H]1CCC[C@H](n2ccc(-c3cc(Cl)ccc3C#N)cc2=O)c2cc(ccn2)-c2c(cnn2C(F)F)NC1=O` [Example 4, 4-chloro-2-{1-[(9R,13S)-3-(difluoromethyl)-9-methyl-8-oxo-3,4,7,15-tetraazatricyclo[12.3.1.0^2,6]octadeca-1(18),2(6),4,14,16-pentaen-13-yl]-2-oxo-1,2-dihydropyridin-4-yl}benzonitrile]: the Ki in assay [1] came to 0.0032 µM; in assay [2], 0.019 µM. On the same counts, the results for `C[C@@H]1CCC[C@H](N2CCC(c3c(C(F)(F)F)ccc(Cl)c3F)=CC2=O)c2cc(ccn2)-c2c(cnn2C)NC1=O` [Example 6] are 0.0017 µM and 0.007 µM. Regarding `C[C@@H]1CCC[C@H](N2CCC(c3c(F)ccc(Cl)c3F)=CC2=O)c2cc(ccn2)-c2nn(-c3ccnc(O)c3)cc2NC1=O` [Example 9, (9R,13S)-13-[4-(3-chloro-2,6-difluorophenyl)-6-oxo-1,2,3,6-tetrahydropyridin-1-yl]-4-(2-hydroxypyridin-4-yl)-9-methyl-3,4,7,15-tetraazatricyclo[12.3.1.0^2,6]octadeca-1(18),2,5,14,16-pentaen-8-one], the Ki in assay [1] and in assay [2] was 0.014 µM each time.

Regarding `CCn1ncc2c1-c1ccnc(c1)[C@@H](N1CCC(c3c(F)ccc(Cl)c3F)=CC1=O)CCC[C@@H](C)C(=O)N2` [Example 10, (9R,13S)-13-[4-(3-chloro-2,6-difluorophenyl)-6-oxo-1,2,3,6-tetrahydropyridin-1-yl]-3-ethyl-9-methyl-3,4,7,15-tetraazatricyclo[12.3.1.0^2,6]octadeca-1(18),2(6),4,14,16-pentaen-8-one], the figures for the Ki in assay [1] and in assay [2] were 0.014 µM and 0.05 µM, respectively. Take `C[C@@H]1CCC[C@H](N2CCC(c3cc(Cl)ccc3-n3ccnn3)=CC2=O)c2cc(ccn2)-c2nn(CC(=O)O)cc2NC1=O` [Example 12, 2-(13-{4-[5-chloro-2-(1H-1,2,3-triazol-1-yl)phenyl]-6-oxo-1,2,3,6-tetrahydropyridin-1l-yl}-9-methyl-8-oxo-3,4,7,15-tetraazatricyclo[12.3.1.0^2,6]octadeca-1(18),2,5,14,16-pentaen-4-yl)acetic Acid]: the Ki in assay [1] stood at 0.014 µM; in assay [2], 0.48 µM. On the same counts, the results for `C[C@@H]1CCC[C@H](N2CCC(c3c(C(F)(F)F)ccc(Cl)c3F)=CC2=O)c2cc(ccn2)-c2c(cnn2C(F)F)NC1=O` [Example 14, (9R,13S)-13-{4-[3-chloro-2-fluoro-6-(trifluoromethyl)phenyl]-6-oxo-1,2,3,6-tetrahydropyridin-1-yl}-3-(difluoromethyl)-9-methyl-3,4,7,15-tetraazatricyclo[12.3.1.0^2,6]octadeca-1(18),2(6),4,14,16-pentaen-8-one] are 0.001 µM and 0.11 µM. Regarding `C[C@@H]1CCC[C@H](N2CCC(c3cc(Cl)ccc3-n3cc(Cl)nn3)=CC2=O)c2cc(ccn2)-c2c(cnn2CC(=O)O)NC1=O` [Example 16, 2-[(9R,13S)-13-{4-[5-chloro-2-(4-chloro-1H-1,2,3-triazol-1-yl)phenyl]-6-oxo-1,2,3,6-tetrahydropyridin-1-yl}-9-methyl-8-oxo-3,4,7,15-tetraazatricyclo [12.3.1.0^2,6]octadeca-1(18),2(6),4,14,16-pentaen-3-yl]acetic acid], the Ki in assay [1] turned out to be 0.00019 µM; in assay [2] it was 0.017 µM. With `[2H]C([2H])([2H])n1ncc2c1-c1ccnc(c1)[C@@H](N1CCC(c3cc(Cl)ccc3-n3cc(Cl)nn3)=CC1=O)CCC[C@@H](C)C(=O)N2` [Example 17, (9R,13S)-13-{4-[5-chloro-2-(4-chloro-1H-1,2,3-triazol-1-yl)phenyl]-6-oxo-1,2,3,6-tetrahydropyridin-1-yl}-3-(^2H3)methyl-9-methyl-3,4,7,15-tetraazatricyclo[12.3.1.0^2,6]octadeca-1(18),2(6),4,14,16-pentaen-8-one], the values for the Ki in assay [1] and in assay [2] were 0.00015 µM and 0.01 µM, respectively. For the compound `[2H]C([2H])([2H])n1ncc2c1-c1ccnc(c1)[C@@H](N1CCC(c3c(C(F)(F)F)ccc(Cl)c3F)=CC1=O)CCC[C@@H](C)C(=O)N2` [Example 18, (9R,13S)-13-{4-[3-chloro-2-fluoro-6-(trifluoromethyl)phenyl]-6-oxo-1,2,3,6-tetrahydropyridin-1-yl}-3-(^2H3)methyl-9-methyl-3,4,7,15-tetraazatricyclo[12.3.1.0^2,6]octadeca-1(18),2(6),4,14,16-pentaen-8-one], the Ki in assay [1] is 0.0028 µM; in assay [2], 0.03 µM.
